In patent US20060154243A1 (priority 2003, published 2006):

Experiments:
[1] = system: rabbit serum obtained by immunizing with SARS-CoV strain Frankfurt 1; format: binding
[2] = system: sera SARS-green, SARS-yellow, 1a, 1b, 2, 6, 37, 62 and London; format: binding, human
two control sera = format: binding, human
[3] = system: serum 1a (individual 1, early serum); format: binding, human
[4] = system: serum 1b (individual 1, late serum); format: binding, human
serum 2 (individual 2) = format: binding, human
serum 6 (individual 6) = format: binding, human
serum 37 (individual 37) = format: binding, human
serum 62 (individual 62) = format: binding, human
serum London = format: binding, human
serum SARS-yellow = format: binding, human
serum SARS-green = format: binding, human
[5] = system: control serum LUMC (pooled serum of ten healthy hospital workers); format: binding, human
[6] = system: control serum Blood-bank (commercial negative donor pooled serum); format: binding, human

Sequence | Rabbit serum linear peptides [1] | Rabbit serum looped peptides [1] | Recognition of the peptide by sera of individuals infected by SARS-CoV, form recognized [2] | Recognition by at least one of the control sera (two control sera) | further results
CTVVQRCASNKPHVL | 1.7 | 1.0 | recognized in linear and in looped form | recognized by at least one of the control sera | 
ICTVVQRCASNKPHV | 0.3 | 0.4 | recognized in linear and in looped form | recognized by at least one of the control sera | 
NVVPPALHLVDPQIQ | 0.1 | 0.5 | recognized in linear and in looped form | recognized by at least one of the control sera | 
TNVVPPALHLVDPQI | 0.1 | 0.5 | recognized in linear and in looped form | recognized by at least one of the control sera | 
TVVQRCASNKPHVLE | 0.7 | 0.3 | recognized in linear and in looped form | recognized by at least one of the control sera | 
VPPALHLVDPQIQLT | 1.0 | 0.4 | recognized in linear and in looped form | recognized by at least one of the control sera | 
VVPPALHLVDPQIQL | 1.2 | 0.4 | recognized in linear and in looped form | recognized by at least one of the control sera | 
YNFLKEQHCQKASTQ |  |  | recognized in looped form |  | Binding of serum 1a to linear peptides of Orf14 of SARS-CoV TOR2 [3]: 0.5; Binding of serum 1b to linear peptides of Orf14 of SARS-CoV TOR2 [4]: 0.4; Binding of serum 2 to linear peptides of Orf14 of SARS-CoV TOR2 (serum 2 (individual 2)): 0.5; Binding of serum 6 to linear peptides of Orf14 of SARS-CoV TOR2 (serum 6 (individual 6)): 0.5; Binding of serum 37 to linear peptides of Orf14 of SARS-CoV TOR2 (serum 37 (individual 37)): 0.6; Binding of serum 62 to linear peptides of Orf14 of SARS-CoV TOR2 (serum 62 (individual 62)): 0.5; Binding of serum London to linear peptides of Orf14 of SARS-CoV TOR2 (serum London): 0.7; Binding of serum SARS-yellow to linear peptides of Orf14 of SARS-CoV TOR2 (serum SARS-yellow): 0.3; Binding of serum SARS-green to linear peptides of Orf14 of SARS-CoV TOR2 (serum SARS-green): 0.5; Control serum LUMC linear peptides [5]: 0.5; Control serum LUMC looped peptides [5]: 0.5; Control Serum Blood-Bank Looped peptides [6]: 0.7; Control serum Blood-bank linear peptides [6]: 0.5
